Assay results taken from patent US8691829B2, “Treatment of liver disorders with PI3K inhibitors” (Gilead Calistoga LLC, priority 2009, dated 2014).

What was measured:
PI3Kδ = PI3Kδ (Homo sapiens (Human), UniProt O00329); test: Activity of selected PI3K inhibitors, Ki (PI3Kδ); assay type: biochemical
Description: (§1) The compounds of formula (3) are readily prepared from available starting material using methods that are known in the art. […] Scheme A in that application provides a route by which the thienopyrimidinone portions of compounds of formula (2a) can be prepared, and Schemes B-G provide routes by which the thienopyrimidinone portions of compounds of formula (2b) can be prepared. […] These references also provide methods for determining the activity of these compounds as inhibitors of PI3Kδ; thus those methods are known in the art.

PI3Kα = PI3Kα (Homo sapiens (Human), UniProt P42336); test: Selectivity of selected PI3K inhibitors (α/δ); assay type: biochemical; settings: ratio PI3Kα relative to PI3Kδ
Description: as §1

PI3Kβ = PI3Kβ (Homo sapiens (Human), UniProt P42338); test: Selectivity of selected PI3K inhibitors (β/δ); assay type: biochemical; settings: ratio PI3Kβ relative to PI3Kδ
Description: as §1

PI3Kγ = PI3Kγ (Homo sapiens (Human), UniProt P48736); test: Selectivity of selected PI3K inhibitors (γ/δ); assay type: biochemical; settings: ratio PI3Kγ relative to PI3Kδ
Description: as §1

hepatocytes = hepatocytes exposed to conditions that generate reactive oxygen species; Kohli et al. 2007; cited from earlier work
steatosis development = settings: diet-induced p85 expression and steatosis; Kohli et al. 2007; cited from earlier work

PI3Kγ, sequence (P48736 whole entry, species assumed): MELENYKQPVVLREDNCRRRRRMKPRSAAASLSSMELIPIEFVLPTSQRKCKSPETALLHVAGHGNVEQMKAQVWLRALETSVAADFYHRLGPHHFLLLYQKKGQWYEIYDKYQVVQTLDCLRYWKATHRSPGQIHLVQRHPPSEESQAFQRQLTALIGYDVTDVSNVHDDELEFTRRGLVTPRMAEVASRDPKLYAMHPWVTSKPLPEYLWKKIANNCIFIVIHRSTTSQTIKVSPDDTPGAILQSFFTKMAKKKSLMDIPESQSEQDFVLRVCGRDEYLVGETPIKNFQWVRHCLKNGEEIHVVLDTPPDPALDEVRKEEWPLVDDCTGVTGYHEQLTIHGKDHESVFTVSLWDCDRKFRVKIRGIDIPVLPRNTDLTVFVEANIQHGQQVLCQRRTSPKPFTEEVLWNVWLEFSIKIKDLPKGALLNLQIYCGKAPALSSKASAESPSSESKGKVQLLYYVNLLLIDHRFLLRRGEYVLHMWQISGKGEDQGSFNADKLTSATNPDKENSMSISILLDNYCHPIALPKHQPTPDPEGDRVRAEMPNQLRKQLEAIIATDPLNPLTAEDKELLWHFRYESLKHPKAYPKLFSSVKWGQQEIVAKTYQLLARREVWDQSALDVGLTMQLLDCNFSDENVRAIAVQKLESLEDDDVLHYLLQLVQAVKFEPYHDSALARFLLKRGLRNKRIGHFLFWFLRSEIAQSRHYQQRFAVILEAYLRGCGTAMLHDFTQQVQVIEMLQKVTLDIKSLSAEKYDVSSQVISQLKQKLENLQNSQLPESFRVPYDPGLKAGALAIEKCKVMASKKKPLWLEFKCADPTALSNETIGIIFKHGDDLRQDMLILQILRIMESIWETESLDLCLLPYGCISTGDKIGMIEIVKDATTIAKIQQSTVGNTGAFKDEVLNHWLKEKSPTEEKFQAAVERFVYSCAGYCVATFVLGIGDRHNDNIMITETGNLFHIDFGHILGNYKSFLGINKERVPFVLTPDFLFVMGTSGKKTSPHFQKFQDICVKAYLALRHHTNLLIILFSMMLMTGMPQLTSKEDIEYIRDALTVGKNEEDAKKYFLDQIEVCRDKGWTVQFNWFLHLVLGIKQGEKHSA
PI3Kβ, sequence (P42338 whole entry, species assumed): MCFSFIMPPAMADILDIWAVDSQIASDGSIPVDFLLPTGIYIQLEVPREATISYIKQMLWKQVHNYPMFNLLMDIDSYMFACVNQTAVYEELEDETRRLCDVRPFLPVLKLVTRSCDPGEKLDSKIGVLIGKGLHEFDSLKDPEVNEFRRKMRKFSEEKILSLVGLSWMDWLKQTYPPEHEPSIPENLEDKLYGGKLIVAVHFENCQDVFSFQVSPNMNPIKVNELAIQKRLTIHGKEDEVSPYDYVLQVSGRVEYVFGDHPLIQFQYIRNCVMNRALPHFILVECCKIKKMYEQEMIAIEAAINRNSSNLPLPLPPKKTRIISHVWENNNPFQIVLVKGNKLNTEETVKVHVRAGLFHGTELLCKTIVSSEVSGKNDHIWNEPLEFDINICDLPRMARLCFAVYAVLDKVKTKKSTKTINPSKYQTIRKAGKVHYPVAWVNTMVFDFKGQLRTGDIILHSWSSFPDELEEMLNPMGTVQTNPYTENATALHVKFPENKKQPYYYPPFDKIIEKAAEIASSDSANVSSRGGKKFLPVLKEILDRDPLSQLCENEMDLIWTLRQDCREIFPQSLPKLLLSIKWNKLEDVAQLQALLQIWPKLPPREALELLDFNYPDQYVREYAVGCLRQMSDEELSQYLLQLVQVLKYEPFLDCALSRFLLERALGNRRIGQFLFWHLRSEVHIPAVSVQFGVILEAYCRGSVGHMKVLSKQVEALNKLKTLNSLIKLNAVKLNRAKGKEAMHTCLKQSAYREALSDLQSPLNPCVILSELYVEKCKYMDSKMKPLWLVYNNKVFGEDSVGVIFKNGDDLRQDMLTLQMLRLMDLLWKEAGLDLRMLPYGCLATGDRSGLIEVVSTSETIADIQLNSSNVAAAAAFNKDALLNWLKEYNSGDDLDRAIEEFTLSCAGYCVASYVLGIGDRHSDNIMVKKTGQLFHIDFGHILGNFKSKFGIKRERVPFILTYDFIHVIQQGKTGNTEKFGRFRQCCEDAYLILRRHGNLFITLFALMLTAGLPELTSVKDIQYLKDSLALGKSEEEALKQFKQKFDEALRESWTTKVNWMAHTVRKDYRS
PI3Kβ, sequence (P27986 whole entry partner, species assumed): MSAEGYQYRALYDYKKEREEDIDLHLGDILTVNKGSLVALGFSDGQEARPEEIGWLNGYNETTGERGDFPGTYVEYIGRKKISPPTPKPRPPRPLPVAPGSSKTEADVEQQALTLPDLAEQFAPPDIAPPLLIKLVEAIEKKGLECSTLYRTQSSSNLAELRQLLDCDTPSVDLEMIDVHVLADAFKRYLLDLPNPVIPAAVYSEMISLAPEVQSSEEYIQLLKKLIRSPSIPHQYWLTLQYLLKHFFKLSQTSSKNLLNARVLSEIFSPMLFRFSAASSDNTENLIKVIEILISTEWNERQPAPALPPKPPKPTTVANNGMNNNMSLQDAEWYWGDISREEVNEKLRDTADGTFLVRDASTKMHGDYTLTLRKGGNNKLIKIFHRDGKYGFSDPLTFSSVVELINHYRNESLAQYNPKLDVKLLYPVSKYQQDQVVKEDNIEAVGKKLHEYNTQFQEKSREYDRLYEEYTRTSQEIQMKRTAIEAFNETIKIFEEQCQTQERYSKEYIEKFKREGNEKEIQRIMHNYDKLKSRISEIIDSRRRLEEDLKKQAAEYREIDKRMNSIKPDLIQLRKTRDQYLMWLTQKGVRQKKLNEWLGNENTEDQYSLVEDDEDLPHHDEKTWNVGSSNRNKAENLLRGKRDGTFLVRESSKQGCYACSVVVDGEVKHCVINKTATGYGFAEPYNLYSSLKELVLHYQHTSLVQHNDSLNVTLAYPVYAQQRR
PI3Kα, sequence (P42336 whole entry, species assumed): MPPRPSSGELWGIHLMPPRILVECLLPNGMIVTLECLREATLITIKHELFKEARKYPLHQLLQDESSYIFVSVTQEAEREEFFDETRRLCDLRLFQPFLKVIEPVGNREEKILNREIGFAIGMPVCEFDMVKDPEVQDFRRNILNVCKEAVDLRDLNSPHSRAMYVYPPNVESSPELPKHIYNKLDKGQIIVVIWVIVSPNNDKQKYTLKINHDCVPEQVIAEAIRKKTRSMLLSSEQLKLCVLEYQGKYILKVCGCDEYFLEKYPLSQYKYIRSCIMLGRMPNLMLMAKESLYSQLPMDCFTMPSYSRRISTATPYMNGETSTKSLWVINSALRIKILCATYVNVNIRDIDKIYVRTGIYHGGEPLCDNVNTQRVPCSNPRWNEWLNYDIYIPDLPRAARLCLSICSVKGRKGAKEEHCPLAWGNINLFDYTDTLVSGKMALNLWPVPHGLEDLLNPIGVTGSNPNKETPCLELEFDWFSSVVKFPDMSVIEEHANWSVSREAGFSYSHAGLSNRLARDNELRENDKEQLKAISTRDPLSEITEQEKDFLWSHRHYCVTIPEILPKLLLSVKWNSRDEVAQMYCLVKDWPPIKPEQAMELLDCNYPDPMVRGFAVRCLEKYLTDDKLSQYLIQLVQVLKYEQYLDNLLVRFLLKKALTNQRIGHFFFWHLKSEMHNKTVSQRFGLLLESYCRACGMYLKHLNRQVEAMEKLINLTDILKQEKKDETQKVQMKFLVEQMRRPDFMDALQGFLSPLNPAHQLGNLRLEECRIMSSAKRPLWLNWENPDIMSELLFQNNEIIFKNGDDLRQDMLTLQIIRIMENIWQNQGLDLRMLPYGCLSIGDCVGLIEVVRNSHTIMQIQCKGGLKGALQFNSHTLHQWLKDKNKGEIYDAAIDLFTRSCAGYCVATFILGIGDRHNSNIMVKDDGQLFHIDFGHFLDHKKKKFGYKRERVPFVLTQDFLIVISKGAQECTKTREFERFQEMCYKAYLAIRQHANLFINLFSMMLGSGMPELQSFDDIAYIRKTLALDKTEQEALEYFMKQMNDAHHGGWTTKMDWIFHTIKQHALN
PI3Kα, sequence (P27986 whole entry partner, species assumed): as the sequence (P27986 whole entry partner, species assumed) above
PI3Kδ, sequence (O00329 whole entry, species assumed): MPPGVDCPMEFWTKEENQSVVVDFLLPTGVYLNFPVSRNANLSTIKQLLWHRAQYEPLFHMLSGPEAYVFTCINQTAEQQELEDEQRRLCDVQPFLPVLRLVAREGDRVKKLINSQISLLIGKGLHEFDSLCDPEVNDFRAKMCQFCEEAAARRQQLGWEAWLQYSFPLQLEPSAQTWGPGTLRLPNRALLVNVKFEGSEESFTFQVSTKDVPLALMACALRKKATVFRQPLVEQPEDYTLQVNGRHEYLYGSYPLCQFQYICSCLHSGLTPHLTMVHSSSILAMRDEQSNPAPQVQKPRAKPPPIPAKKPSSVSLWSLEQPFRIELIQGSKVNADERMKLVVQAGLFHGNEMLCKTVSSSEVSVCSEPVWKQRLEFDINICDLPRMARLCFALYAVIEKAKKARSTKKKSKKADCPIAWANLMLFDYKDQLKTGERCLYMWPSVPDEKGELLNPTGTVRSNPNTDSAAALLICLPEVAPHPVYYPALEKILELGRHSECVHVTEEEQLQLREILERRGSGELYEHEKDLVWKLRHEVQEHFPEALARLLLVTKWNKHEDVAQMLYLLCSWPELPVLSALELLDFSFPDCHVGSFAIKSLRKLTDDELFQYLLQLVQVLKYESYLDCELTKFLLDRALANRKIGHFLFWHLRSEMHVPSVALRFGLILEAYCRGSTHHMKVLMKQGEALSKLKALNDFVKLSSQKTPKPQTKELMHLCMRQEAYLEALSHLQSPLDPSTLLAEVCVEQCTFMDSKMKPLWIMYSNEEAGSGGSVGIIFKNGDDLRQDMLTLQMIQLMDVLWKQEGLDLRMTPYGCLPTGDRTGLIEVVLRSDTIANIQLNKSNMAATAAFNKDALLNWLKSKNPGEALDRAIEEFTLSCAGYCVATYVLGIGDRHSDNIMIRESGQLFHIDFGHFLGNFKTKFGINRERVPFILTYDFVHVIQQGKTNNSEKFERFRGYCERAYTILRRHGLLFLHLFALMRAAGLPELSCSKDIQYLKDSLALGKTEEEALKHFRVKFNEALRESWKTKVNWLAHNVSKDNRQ
PI3Kδ, sequence (P27986 whole entry partner, species assumed): as the sequence (P27986 whole entry partner, species assumed) above

| SMILES | Ki (PI3Kδ) | Selectivity (α/δ) (PI3Kα) | Selectivity (β/δ) (PI3Kβ) | Selectivity (γ/δ) (PI3Kγ) | steatosis (accumulation of fat) in hepatocytes (hepatocytes) | steatosis development (steatosis development) |
| --- | --- | --- | --- | --- | --- | --- |
| Cc1cccc2nc(C(C)Nc3ncnc4[nH]cnc34)n(-c3ccccc3)c(=O)c12 (stereo not drawn) [4b] | 5 nM | 132 | 29 | 12 |  |  |
| CC(Nc1ncnc2[nH]cnc12)c1nc2ccsc2c(=O)n1-c1ccccc1 (stereo not drawn) [3e] | 6 nM | 528 | 123 | 28 |  |  |
| O=c1cc(N2CCOCC2)oc2c(-c3ccccc3)cccc12 [LY294002] |  |  |  |  | can be inhibited | blocked steatosis development |
| Cc1cccc2nc(C(C)n3cnc4c(N)ncnc43)n(-c3ccccc3)c(=O)c12 (stereo not drawn) [4a] | 7 nM | 2963 | 119 | 61 |  |  |
| CC(c1nc2ccsc2c(=O)n1-c1ccccc1)n1cnc2c(N)ncnc21 (stereo not drawn) [3d] | 40 nM | 1447 | 126 | 187 |  |  |
